According to PubChem BioAssay AID330 (DTP/NCI, 2004):
Several values for one entry are separate records, joined by “and”; a condition that tells them apart may be missing. Identical values can stand only once. Toxic doses and inconclusive results are not listed. The calls were made as follows: active = survival T/C of 150% or more; inactive = T/C below 125% in these data.

System: P388 leukemia ip, CD2F1 mice, survival T/C
Test: NCI In Vivo Anticancer Drug Screen. Data for tumor model P388 Leukemia (intraperitoneal) in CD2F1 (CDF1) mice
Settings: endpoint: median survival time, higher = longer survival
Outline: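 Mice carrying the transplanted tumor received test compound or vehicle. Survival was recorded in each group, and the value is the treated-group measurement divided by that of the vehicle-treated control group.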

[1] = dose: 50.0 mg/kg/injection, schedule: Q01DX009 (ip), vehicle: saline with Tween-80
[2] = dose: 100.0 mg/kg/injection, schedule: Q01DX009 (ip), vehicle: saline with Tween-80
[3] = dose: 200.0 mg/kg/injection, schedule: Q01DX009 (ip), vehicle: saline with Tween-80
[4] = dose: 50.0 mg/kg/injection, schedule: Q01DX005 (ip), vehicle: saline with Tween-80
[5] = dose: 100.0 mg/kg/injection, schedule: Q01DX005 (ip), vehicle: saline with Tween-80
[6] = dose: 200.0 mg/kg/injection, schedule: Q01DX005 (ip), vehicle: saline with Tween-80
[7] = dose: 50.0 mg/kg/injection, schedule: Q01DX009 (ip), vehicle: saline
[8] = dose: 100.0 mg/kg/injection, schedule: Q01DX009 (ip), vehicle: saline
[9] = dose: 6.25 mg/kg/injection, schedule: Q01DX009 (ip), vehicle: water
[10] = dose: 200.0 mg/kg/injection, schedule: Q01DX009 (ip), vehicle: saline
[11] = dose: 60.0 mg/kg/injection, schedule: Q01DX005 (ip), vehicle: saline with Tween-80
[12] = dose: 120.0 mg/kg/injection, schedule: Q01DX005 (ip), vehicle: saline with Tween-80
[13] = dose: 240.0 mg/kg/injection, schedule: Q01DX005 (ip), vehicle: saline with Tween-80
[14] = dose: 25.0 mg/kg/injection, schedule: Q01DX009 (ip), vehicle: Klucel (hydroxypropylcellulose) (HPC)
[15] = dose: 50.0 mg/kg/injection, schedule: Q01DX009 (ip), vehicle: Klucel (hydroxypropylcellulose) (HPC)

Measured: T/C

CC(C)(C)N1N=C2CCCC2[Si]1(C)C (stereo not given)
inactive: dose: 25.0 mg/kg/injection, schedule: Q01DX005 (ip), vehicle: Klucel (hydroxypropylcellulose) (HPC) 105 % of control | dose: 50.0 mg/kg/injection, schedule: Q01DX005 (ip), vehicle: Klucel (hydroxypropylcellulose) (HPC) 102 % of control | dose: 100.0 mg/kg/injection, schedule: Q01DX005 (ip), vehicle: Klucel (hydroxypropylcellulose) (HPC) 102 % of control

C=C1C(=O)OC2CC(C)C3C(OC(C)=O)CC(OC(C)=O)C3(C)CC12 (stereo not given)
inactive: dose: 12.5 mg/kg/injection, schedule: Q04DX002 (ip), vehicle: saline with Tween-80 99 % of control | dose: 25.0 mg/kg/injection, schedule: Q04DX002 (ip), vehicle: saline with Tween-80 106 % of control | dose: 50.0 mg/kg/injection, schedule: Q04DX002 (ip), vehicle: saline with Tween-80 103 % of control

CC(C)S(=O)c1ccc(Cl)cc1[N+](=O)[O-] (stereo not given)
inactive: [1] 99 % of control | [2] 99 % of control | [3] 100 % of control

O=C1CCCCCCCC(=O)Nc2ccc3nc4ccccc4c(c3c2)SCCCCCCCCCCCCSc2c3ccccc3nc3ccc(cc23)N1
inactive: [4] 105 % of control | [5] 107 % of control | [6] 104 % of control

Clc1cccc2c(SCCCCCSc3c4ccccc4nc4c(Cl)cccc34)c3ccccc3nc12
inactive: dose: 60.0 mg/kg/injection, schedule: Q01DX005 (ip), vehicle: Klucel (hydroxypropylcellulose) (HPC) 93 % of control | dose: 120.0 mg/kg/injection, schedule: Q01DX005 (ip), vehicle: Klucel (hydroxypropylcellulose) (HPC) 93 % of control | dose: 240.0 mg/kg/injection, schedule: Q01DX005 (ip), vehicle: Klucel (hydroxypropylcellulose) (HPC) 87 % of control

O=Cc1ccc(O)c(O)c1
inactive: [7] 106 % of control and 109 % of control | [8] 110 % of control | dose: 400.0 mg/kg/injection, schedule: Q01DX009 (ip), vehicle: saline 107 % of control

COc1cccc2c1C(=O)c1c(O)c3c(c(O)c1C2=O)CC(OC1CC(N)C(O)C(C)O1)(C(C)=O)CC3OC1CC(N)C(O)C(C)O1 (stereo not given)
inactive: dose: 1.56 mg/kg/injection, schedule: Q01DX009 (ip), vehicle: water 107 % of control | dose: 3.13 mg/kg/injection, schedule: Q01DX009 (ip), vehicle: water 103 % of control | [9] 108 % of control | dose: 12.5 mg/kg/injection, schedule: Q01DX009 (ip), vehicle: water 122 % of control

C=C1C(=O)OC2C1C(OC(=O)/C(C)=C/C)CC1(COC(O)C1)C2C(=C)C (stereo not given)
inactive: dose: 2.5 mg/kg/injection, schedule: Q01DX009 (ip), vehicle: saline + alcohol 107 % of control | dose: 5.0 mg/kg/injection, schedule: Q01DX009 (ip), vehicle: saline + alcohol 118 % of control | dose: 10.0 mg/kg/injection, schedule: Q01DX009 (ip), vehicle: saline + alcohol 109 % of control | dose: 20.0 mg/kg/injection, schedule: Q01DX009 (ip), vehicle: saline + alcohol 100 % of control

NC(N)=O.NC(N)=O.NC(N)=O.NC(N)=O.NC(N)=O.NC(N)=O.[O-][Cl+3]([O-])([O-])O.[Ti+3]
inactive: [7] 99 % of control | [8] 92 % of control | [10] 86 % of control

CC(=O)c1cc(-c2ccccn2)c(=O)n2ccccc12
inactive: dose: 12.5 mg/kg/injection, schedule: Q01DX009 (ip), vehicle: saline with Tween-80 105 % of control | dose: 25.0 mg/kg/injection, schedule: Q01DX009 (ip), vehicle: saline with Tween-80 99 % of control | [1] 100 % of control and 87 % of control

CN1N=C(N)c2cn(C3OC(COP(=O)(O)O)C(O)C3O)c3ncnc1c23 (stereo not given)
inactive: [9] 124 % of control | dose: 20.0 mg/kg/injection, schedule: Q01DX005 (ip), vehicle: saline 122 % of control | dose: 38.0 mg/kg/injection, schedule: Q01DX005 (ip), vehicle: water 124 % of control

O=C(c1cc2c(cc1Br)OCO2)N1CCc2ccccc21
inactive: dose: 50.0 mg/kg/injection, schedule: Q01DX009 (ip), vehicle: other 93 % of control | dose: 100.0 mg/kg/injection, schedule: Q01DX009 (ip), vehicle: other 105 % of control | dose: 200.0 mg/kg/injection, schedule: Q01DX009 (ip), vehicle: other 109 % of control

CC1(C)CCCC12CCN1CCC([N+](=O)[O-])C12 (stereo not given)
inactive: dose: 11.5 mg/kg/injection, schedule: Q04DX003 (ip), vehicle: saline with Tween-80 100 % of control | dose: 23.0 mg/kg/injection, schedule: Q04DX003 (ip), vehicle: saline with Tween-80 108 % of control | dose: 46.0 mg/kg/injection, schedule: Q04DX003 (ip), vehicle: saline with Tween-80 100 % of control | dose: 92.0 mg/kg/injection, schedule: Q04DX003 (ip), vehicle: saline with Tween-80 108 % of control

COc1cc(OC)c2c(=O)cc(-c3ccccc3)sc2c1
inactive: dose: 100.0 mg/kg/injection, schedule: Q01DX001 (ip), vehicle: saline with Tween-80 100 % of control | dose: 200.0 mg/kg/injection, schedule: Q01DX001 (ip), vehicle: saline with Tween-80 94 % of control | dose: 400.0 mg/kg/injection, schedule: Q01DX001 (ip), vehicle: saline with Tween-80 95 % of control

CCCOCC(=O)OC
inactive: [7] 98 % of control | [8] 99 % of control | [10] 100 % of control

O=S(=O)(O)C1=CC(=N/Cl)/C=CC/1=N\Cl
inactive: dose: 50.0 mg/kg/injection, schedule: Q01DX005 (ip), vehicle: saline 114 % of control and 116 % of control and 119 % of control | dose: 100.0 mg/kg/injection, schedule: Q01DX005 (ip), vehicle: saline 104 % of control and 121 % of control and 124 % of control | dose: 200.0 mg/kg/injection, schedule: Q01DX005 (ip), vehicle: saline 107 % of control and 116 % of control and 121 % of control | dose: 400.0 mg/kg/injection, schedule: Q01DX005 (ip), vehicle: saline 106 % of control

COc1ccc(S(=O)(=O)N/N=C\c2cccc([N+](=O)[O-])c2O)cc1OC
inactive: [4] 102 % of control | [5] 99 % of control | [6] 101 % of control

N#CC(C#N)=CN
inactive: [1] 94 % of control | [2] 103 % of control | [3] 103 % of control

CNC/C(Cl)=N/S(=O)(=O)c1ccc(C)cc1
inactive: [11] 99 % of control | [12] 99 % of control | [13] 105 % of control

CCC(/C=C/c1ccccc1)=N\Nc1ccc(Cl)cc1
inactive: [11] 104 % of control | [12] 101 % of control | [13] 98 % of control

Cc1cc(C)cc(-n2cccc2C(=O)O)c1
inactive: [11] 93 % of control | [12] 99 % of control | [13] 100 % of control

COC1/C=C/OC2(C)Oc3c(C)c(O)c4c(c3C2=O)C(N)=C(NC2CC2)C(=NC(=O)/C(C)=C\C=C\C(C)C(O)C(C)C(O)C(C)C(OC(C)=O)C1C)C4=O (stereo not given)
inactive: [14] 102 % of control | [15] 103 % of control | dose: 100.0 mg/kg/injection, schedule: Q01DX009 (ip), vehicle: Klucel (hydroxypropylcellulose) (HPC) 119 % of control

C(=C\CSc1ccccn1)/CSc1ccccn1
inactive: dose: 12.5 mg/kg/injection, schedule: Q01DX009 (ip), vehicle: Klucel (hydroxypropylcellulose) (HPC) 107 % of control | [14] 99 % of control | [15] 90 % of control and 91 % of control | dose: 200.0 mg/kg/injection, schedule: Q01DX009 (ip), vehicle: Klucel (hydroxypropylcellulose) (HPC) 91 % of control

CN1C(=O)CC([Se]c2ccccc2)C1=O (stereo not given)
inactive: dose: 6.25 mg/kg/injection, schedule: Q04DX003 (ip), vehicle: Klucel (hydroxypropylcellulose) (HPC) 107 % of control and 97 % of control | dose: 12.5 mg/kg/injection, schedule: Q04DX003 (ip), vehicle: Klucel (hydroxypropylcellulose) (HPC) 103 % of control and 104 % of control | dose: 25.0 mg/kg/injection, schedule: Q04DX003 (ip), vehicle: Klucel (hydroxypropylcellulose) (HPC) 99 % of control and 105 % of control | dose: 50.0 mg/kg/injection, schedule: Q04DX003 (ip), vehicle: Klucel (hydroxypropylcellulose) (HPC) 100 % of control | dose: 100.0 mg/kg/injection, schedule: Q04DX003 (ip), vehicle: Klucel (hydroxypropylcellulose) (HPC) 105 % of control

CCN(CC)CCNc1ccc(COC(=O)Nc2ccccc2)c2sc3ccccc3c(=O)c12
inactive: dose: 6.25 mg/kg/injection, schedule: Q01DX005 (ip), vehicle: Klucel + Tween-80 111 % of control
